The conditions of data set [1]: cited from earlier work; for toxic dose: long-acting anesthetics.
Data set [2] in a line: Toxic and maximum doses of local anesthetics (state of the art). The source says: The Articaine hydrochloride always belongs to the group of the short-acting local anesthetics.
Setting [3] is: combined with a vasoconstrictor such as adrenaline.

Each structure is given as a SMILES string. Where a name gives a salt, the structure may show the parent alone.

With `CCCNC(C)C(=O)Nc1c(C)csc1C(=O)OC` (centres unmarked) [Articaine hydrochloride], the “toxic dose / tolerance compared with other short-acting anesthetics” value in data set [1] (in vivo) was “overlapping to that of the lidocaine and mepivacaine”.
In the case of `CCCCN1CCCCC1C(=O)Nc1c(C)cccc1C` (centres unmarked) [Bupivacaine hydrochloride], in data set [2] (5 mg/ml solution (0.5%)), the maximum volume was determined as 30 mL. Further, in data set [1], the toxic dose is on record as 2 mg/kg body.
In turn, `CCCCN1CCCC[C@H]1C(=O)Nc1c(C)cccc1C` [Levobupivacaine hydrochloride] registered a maximum volume in data set [2] (5 mg/ml solution (0.5%)) of 30 mL. The toxic dose in data set [1] was 2 mg/kg body.
With `CCN(CC)CC(=O)Nc1c(C)cccc1C` [Lidocaine, Lidocaine hydrochloride], the maximum volume in data set [2] (human, in vivo) is 15 mL. Further, in data set [1] (setting [3]), the maximum dosage was 7 mg/kg and the maximum dose was 500 mg.
